mortality, Efficacy and Time data for 14 compounds are collected here from ChEMBL document CHEMBL3046308, “Synthesis of phenoxyphenyl pyridine and pyrazine carboxamides. Activity against Cydia pomonella (L.) eggs” (2000).

SMILES strings stand for the structures.

Holding throughout (assay type): functional
Assay [1] deals with Cydia pomonella. Description: Ovicidal activity against 24 hr old Cydia pomonella (codling moth) eggs assessed as mortality at 5 mg/ml sprayed at 19 +/- 1 degC.
Assay [2] has as its system Cydia pomonella. Description: Ovicidal activity against 24 hr old Cydia pomonella (codling moth) eggs assessed as efficacy at 5 mg/ml sprayed at 19 +/- 1 degC.
Assay [3] has as its system Cydia pomonella. Description: Ovicidal activity against 24 hr old Cydia pomonella (codling moth) eggs assessed as development period at 5 mg/ml sprayed at 19 +/- 1 degC.

In the case of `C=CCOC(=O)Nc1ccc(Oc2ccc(N)cc2)cc1`, the mortality at 5000 µg/mL in assay [1] was found to be 48.1%. The Efficacy in assay [2] amounted to 35%. Besides, the Time in assay [3] is 11.3 days.

For `C=CCOC(=O)Nc1ccc(Oc2ccc(NC(=O)c3ccccn3)cc2)cc1`, the mortality at 5000 µg/mL in assay [1] came to 40.7%. Besides, the Efficacy in assay [2] stood at 27.2%. Besides, the Time in assay [3] amounted to 11.1 days.

Consider `C=CCOC(=O)Nc1ccc(Oc2ccc(NC(=O)c3cccnc3)cc2)cc1`, for which the mortality at 5000 µg/mL in assay [1] was determined as 34.4%. Moreover, the Time in assay [3] was determined as 10.2 days.

As to `C=CCOC(=O)Nc1ccc(Oc2ccc(NC(=O)c3ccncc3)cc2)cc1`, in assay [1], the mortality at 5000 µg/mL was found to be 53.8%. For the same compound, in assay [2], the Efficacy is listed as 42.5%. In assay [3], the Time stood at 11.7 days.

With `C=CCOC(=O)Nc1ccc(Oc2ccc(NC(=O)c3cnccn3)cc2)cc1`, the mortality at 5000 µg/mL in assay [1] turned out to be 25.3%. Moreover, the Time in assay [3] worked out at 9.5 days.

As for `O=C(Nc1ccc(Oc2ccccc2)cc1)c1ccncc1`, the mortality at 5000 µg/mL in assay [1] turned out to be 33.4%. Moreover, the Time in assay [3] was determined as 10 days.

For the compound `O=C(Nc1ccc(Oc2ccccc2)cc1)c1cnccn1`, the mortality at 5000 µg/mL in assay [1] was 29.2%. Moreover, the Time in assay [3] was found to be 9.7 days.

Consider `CC(=O)Nc1ccc(Oc2ccc(NC(=O)c3ccccn3)cc2)cc1`, for which the mortality at 5000 µg/mL in assay [1] was 67.3%. The Efficacy in assay [2] is on record as 47.1%. Also, the Time in assay [3] was found to be 10.9 days.

In the case of `CC(=O)Nc1ccc(Oc2ccc(NC(=O)c3cccnc3)cc2)cc1`, the mortality at 5000 µg/mL in assay [1] is 57.6%. Moreover, in assay [3], the Time was found to be 10.6 days.

Take `CC(=O)Nc1ccc(Oc2ccc(NC(=O)c3ccncc3)cc2)cc1`: in assay [1], the mortality at 5000 µg/mL turned out to be 52.7%. Also, the Time in assay [3] turned out to be 10.1 days.

Turning to `CC(=O)Nc1ccc(Oc2ccc(NC(=O)c3cnccn3)cc2)cc1`, the mortality at 5000 µg/mL in assay [1] was found to be 68.4%. Further, the Efficacy in assay [2] turned out to be 49.1%. Also, the Time in assay [3] came out at 11 days.

On to `O=C(Nc1ccc(Oc2ccccc2)cc1)c1cccnc1`, for which the mortality at 5000 µg/mL in assay [1] stood at 40.9%. The Efficacy in assay [2] stood at 26.3%. The Time in assay [3] came out at 10.6 days.

Regarding `O=C(Nc1ccc(Oc2ccccc2)cc1)c1ccccn1`, the mortality at 5000 µg/mL in assay [1] came out at 52.4%. Moreover, the Efficacy in assay [2] was found to be 40.7%. Moreover, the Time in assay [3] worked out at 10.8 days.

Take `CCOC(=O)NCCOc1ccc(Oc2ccccc2)cc1` [PHENOXYCARB]: the mortality at 5000 µg/mL in assay [1] came to 99.3%. In assay [2], the Efficacy was 99.1%.

Broadly, the mortality is the share of the test organisms that died.
